Test results: paper PMC5719402, “Protein-Structure Assisted Optimization of 4,5-Dihydroxypyrimidine-6-Carboxamide Inhibitors of Influenza Virus Endonuclease” (Scientific Reports, 2017)

Biological target: wild type PAN ΔLoop protein (Influenza A virus, UniProt C3W5S0, DEL51-57/DEL61-72/E59G)
Assay type: biochemical, influenza A/California/04/2009 H1N1
Settings: read-out: FRET IC50

SMILES: O=C(O)C(=O)CC(=O)c1ccccc1 [DPBA, reference compound]
- IC50: 98 ± 3 nM
